Experiments:
human NNMT (hNNMT) = molecular target: T1, human NNMT (hNNMT) (Homo sapiens, UniProt P40261); assay: Fluorescence based NNMT enzymatic assay (human); settings: fluorescence based biochemical assay
T1 construct: The full length NNMT proteins (1–264 amino acids) of human & mouse; 6 × His tag (N); TEV cleavage site (ENLYFQG) (N); made in house; host or cells: E. coli Rosetta2(DE3)pLysS
Method: NNMT activity was measured with the fluorescence enzymatic assay[22],[23]. MNA formed in the NNMT reaction reacts with acetophenone in the presence of KOH and formic acid and forms a fluorescent product 2, 7- naphthyridine. JBSNF-000088 was screened using human, mouse and monkey NNMT enzymes. Different concentrations of inhibitors were preincubated along with the enzyme for 30 minutes at room temperature. Reaction was initiated by addition of SAM and nicotinamide mixture (7 µM, 20 µM, 8 µM SAM and 6 µM, 20 µM, 9 µM nicotinamide for human, mouse and monkey NNMT assays respectively) for 60 minutes at 37 °C. The final assay reaction mixture contained a buffer of 100 mM Tris Hcl pH 7.5, 0.04% BSA, 2 mM dithiothreitol and 1% DMSO. At the end of the incubation, the reaction was stopped by the addition of ethanol: acetophenone mix (75% ethanol: 25% acetophenone) and 5 M potassium hydroxide prepared with 50% ethanol. The reaction was incubated for 15 minutes following which 100 µL of 60% formic acid was added. […] The fluorescent product 2, 7- naphthyridine was measured using a Tecan reader with excitation at 375 nm and emission at 430 nm. The IC50 values were determined by fitting the inhibition curves (percent inhibition versus inhibitor concentration) using a four parametric sigmoidal dose response using GraphPad Prism software.

ob/ob mice = assay: Chronic efficacy study in ob/ob mice; format: in vivo, mouse
Method: Samples for MNA were analyzed employing a fit-for-purpose LC-MS/MS method. PE-Sciex API-4000 triple quadrupole (PerkinElmerSciex Instruments, Boston, MA) mass spectrometer was employed for this analysis. Samples (5 µL) were injected onto Kinetex HILIC (50 × 4.6 mm, 2.6 µm; Phenomenex, Torrance, CA, USA) column connected to Shimadzu VP (Shimadzu, Japan) LC system. The gradient mobile phase mixture of 0.2% formic acid and acetonitrile was delivered at a flow rate of 0.45 ml min-1 into the mass spectrometer electrospray ionization (ESI) chamber. Quantitation was achieved by MS/MS detection in positive ion mode for MNA and internal standard (d4–MNA). Detection of the ions was performed in the multiple reaction monitoring (MRM) mode, monitoring the transition of the m/z 137 precursor ion to the m/z 92 product ion for MNA and m/z 141 precursor ion to the m/z 84 product ion for d4-MNA (internal standard).
A simple protein precipitation extraction method was followed for extraction of N-methylnicotinamide from plasma and various tissue homogenate samples. The tissue samples were homogenized with 1:3 proportions of phosphate buffer saline (PBS) and this homogenate was used for N-Methylnicotinamide determinations. To an aliquot of ~50 μL of plasma/ liver homogenate/ adipose tissue homogenate samples ~300 µl of acetonitrile containing IS (d4-MNA) solution was added, followed by vortex for ~3 minutes and centrifuged for 10 minutes at 14,000 rpm. The supernatant was separated and transferred to pre-labeled HPLC vials and analyzed by LC-MS/MS system.
Male C57BL6/N (Vivo Bio Tech Ltd, India), ob/ob (B6.V-Lepob/OlaHsd) and its lean control (Envigo laboratories Inc, USA) and db/db (BKS.Cg- + Leprdb/ + Leprdb/OlaHsd) and its lean control (Envigo laboratories Inc, USA) were housed in individually ventilated cages (n = 5/cage) under standard laboratory conditions. The study room environment was maintained at a temperature of 21–24 °C and, relative humidity at 40–70%. The animal rooms were maintained under 12 h light and dark cycle. Animals were provided with ad libitum access to water and food (except where noted otherwise, e.g. during fasting prior for glucose tolerance tests, fasting prior to terminal sacrifice). Animals were acclimatized for 1 week before initiation of studies. For Diet induced obesity (DIO) mice study, C57BL6/N mice were maintained on rodents chow diet (Teklad; Harlan) or HFD (60% Kcal; Research diet) for 14 weeks before study initiation and throughout the study period. ob/ob and db/db mice and their lean controls were maintained on rodents chow diet (Teklad; Harlan). All the experiments were approved by Institutional Animal Ethics Committee (IAEC) of Jubilant Biosys Ltd, India.
Lean control + Vehicle and HFD + Vehicle Control groups (G1 and G2) mice were administered with vehicle. Dose formulations of HFD + JBSNF-000088, 50 mg kg^−1, po, bid were administered at dose volume of 5 mL kg^−1 body weight to G3 mice. Similar pattern was followed for ob/ob mice and db/db mice studies. The dose volume for individual animals was calculated based on the most recently recorded body weight during the study period. […] Cage side observations of animals for visible clinical signs, was carried out once daily throughout the study period. Individual animal body weights were recorded twice weekly during the study period.
The ob/ob mice were 12 weeks of age at the start of the study and db/db mice were 8 weeks of age at the start of the study. DIO mice were 20 weeks of age at the start of the study. In each study, non-diabetic lean mice comprised the control group which received vehicle (0.5% w/v HEC and 0.5% v/v Tween 80) and obese or diabetic mice were randomly assigned to two groups based on body weight and unfasted glucose which received either vehicle (0.5% w/v HEC and 0.5% v/v Tween 80) or JBSNF-000088, 50 mg kg^−1, po, bid for 30 days.

[1] = molecular target: adrenergic, alpha-1A-, receptor (ADRA1A) (Homo sapiens, UniProt P35348); assay: Selectivity panel: ADRA1A; format: cell-based
Method: (§1) Supplement 41598_2018_22081_MOESM1_ESM.docx, table 2: Supplementary table 2: Selectivity profile of JBSNF-000088 (at 10 µM) vs a panel of 34 receptors, channels and enzymes. | column: E% (agonistic); I% (antagonistic or inhibitory)

[2] = molecular target: Cannabinoid Receptor 1 (CB1) (Homo sapiens, UniProt P21554); assay: Selectivity panel: CB1; format: cell-based
Method: as §1

[3] = molecular target: Norepinephrin (Noradrenalin) Transporter (Homo sapiens, UniProt P23975); assay: Selectivity panel: norepinephrine transporter; format: binding; settings: read-out: I% (antagonistic or inhibitory), Norepinephrin (Noradrenalin) Transporter
Method: Supplement 41598_2018_22081_MOESM1_ESM.docx, table 2: Supplementary table 2: Selectivity profile of JBSNF-000088 (at 10 µM) vs a panel of 34 receptors, channels and enzymes. | column: I% (antagonistic or inhibitory)

physchem = settings: aqueous buffer
in vitro = settings: human, Caco-2

Cannabinoid Receptor 1 (CB1), sequence (P21554 whole entry): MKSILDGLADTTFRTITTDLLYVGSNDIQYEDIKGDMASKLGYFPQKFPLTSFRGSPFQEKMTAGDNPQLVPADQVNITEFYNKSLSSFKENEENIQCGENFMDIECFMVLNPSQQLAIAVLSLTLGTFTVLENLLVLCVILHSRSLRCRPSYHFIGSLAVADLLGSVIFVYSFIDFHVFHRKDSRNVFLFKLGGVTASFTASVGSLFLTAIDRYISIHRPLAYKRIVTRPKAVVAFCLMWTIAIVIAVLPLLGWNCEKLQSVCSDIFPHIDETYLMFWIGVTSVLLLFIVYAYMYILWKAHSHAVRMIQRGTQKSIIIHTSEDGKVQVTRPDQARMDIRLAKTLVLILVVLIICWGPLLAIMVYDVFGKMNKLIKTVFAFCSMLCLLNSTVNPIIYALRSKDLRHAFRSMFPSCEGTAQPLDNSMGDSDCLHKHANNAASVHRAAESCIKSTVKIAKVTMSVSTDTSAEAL
adrenergic, alpha-1A-, receptor (ADRA1A), sequence (P35348 whole entry): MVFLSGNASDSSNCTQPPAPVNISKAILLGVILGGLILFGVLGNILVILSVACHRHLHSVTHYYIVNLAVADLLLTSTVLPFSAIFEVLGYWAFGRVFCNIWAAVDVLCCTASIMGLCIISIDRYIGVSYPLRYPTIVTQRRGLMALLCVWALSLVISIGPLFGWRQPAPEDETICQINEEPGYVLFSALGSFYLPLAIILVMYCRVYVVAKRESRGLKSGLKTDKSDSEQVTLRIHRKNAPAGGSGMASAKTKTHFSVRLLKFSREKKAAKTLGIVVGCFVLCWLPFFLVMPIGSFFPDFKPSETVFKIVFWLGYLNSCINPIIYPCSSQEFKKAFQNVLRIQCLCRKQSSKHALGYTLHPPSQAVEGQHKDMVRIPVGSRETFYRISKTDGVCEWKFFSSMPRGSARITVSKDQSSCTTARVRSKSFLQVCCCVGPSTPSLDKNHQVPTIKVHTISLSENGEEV
Norepinephrin (Noradrenalin) Transporter, sequence (P23975 whole entry): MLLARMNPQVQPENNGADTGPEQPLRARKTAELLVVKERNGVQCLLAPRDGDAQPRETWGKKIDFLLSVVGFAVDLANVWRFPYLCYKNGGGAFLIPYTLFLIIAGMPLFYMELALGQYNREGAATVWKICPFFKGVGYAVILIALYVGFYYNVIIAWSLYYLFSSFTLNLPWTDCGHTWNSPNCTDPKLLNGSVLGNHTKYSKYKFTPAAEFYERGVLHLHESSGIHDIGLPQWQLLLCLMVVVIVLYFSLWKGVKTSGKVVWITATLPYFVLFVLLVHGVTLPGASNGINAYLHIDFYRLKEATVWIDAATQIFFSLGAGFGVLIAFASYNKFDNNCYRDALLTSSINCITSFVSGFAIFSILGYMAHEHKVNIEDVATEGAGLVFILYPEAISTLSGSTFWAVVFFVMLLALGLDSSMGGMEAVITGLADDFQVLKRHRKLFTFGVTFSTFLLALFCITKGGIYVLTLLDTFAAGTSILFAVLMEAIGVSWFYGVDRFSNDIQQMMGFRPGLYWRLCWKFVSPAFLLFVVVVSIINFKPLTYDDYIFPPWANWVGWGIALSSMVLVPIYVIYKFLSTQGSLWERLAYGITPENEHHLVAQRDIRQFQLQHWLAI
T1 sequence (P40261 whole entry, the tested form may be a part): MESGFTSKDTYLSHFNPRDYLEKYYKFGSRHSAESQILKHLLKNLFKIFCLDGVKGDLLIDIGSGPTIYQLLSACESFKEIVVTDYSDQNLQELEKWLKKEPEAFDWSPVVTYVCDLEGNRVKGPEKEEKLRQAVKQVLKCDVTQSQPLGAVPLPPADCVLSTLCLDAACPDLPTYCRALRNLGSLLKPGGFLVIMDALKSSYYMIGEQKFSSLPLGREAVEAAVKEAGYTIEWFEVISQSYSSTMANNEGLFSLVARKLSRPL

## COc1ccc(C(N)=O)cn1 [JBSNF-000088, 6-methoxynicotinamide]
Human NNMT (hNNMT)
  IC50: 1800 nM
ob/ob mice; 50 mg/kg b.i.d p.o., 30 days, vs vehicle
  body weight gain: gained comparable weight
ob/ob mice; 30 days, p < 0.0001 vs vehicle control
  MNA levels in visceral WAT and subcutaneous fat: statistically significant reduction
ob/ob mice; day 21, vs vehicle control
  fed blood glucose or insulin: no reduction
ob/ob mice; day 28
  glucose tolerance: statistically significant improvement
ob/ob mice; day 28, p < 0.001 vs vehicle control
  AUC blood glucose (OGTT): significantly (p < 0.001) lower
ob/ob mice; fed days 7, 14 or 21, fasting day 28, 15 minutes after glucose bolus
  plasma insulin: not accompanied by a reduction in plasma insulin
ob/ob mice; p < 0.001 vs vehicle control
  HOMA-IR index: statistically significant improvement
ob/ob mice; vs vehicle
  cumulative food intake: comparable
[1]; 10 µM
  E% (agonistic), ADRA1A: -2%
[1]; read-out: I% (antagonistic or inhibitory), ADRA1A
  inhibition at 10 µM: -3%
[2]; 10 µM
  E% (agonistic), CB1: 0%
[2]; read-out: I% (antagonistic or inhibitory), CB1
  inhibition at 10 µM: 1%
[3]
  inhibition at 10 µM: 9%
physchem
  solubility: > 200 µM
In vitro
  Papp: 25.2 ×10⁻⁶ cm/s
  efflux ratio: 1.04
